The values below come from patent US20180116209A1, “Liposome Formulations” (priority 2012, published 2018).

In one data set the test system is Root-Knot larvae (J2). Briefly: Efficacy of nematicides (Oxamyl, Thiodicarb) in killing Root-Knot larvae (J2) in vitro. Type of data set: in vivo, M. incognita. The following applies: compared with Oxamyl, 200 ug to 10 mg. Here is the method: M. incognita eggs collected from tomato cultures by NaOC1 extraction (Hussey and Barker, 1973). Briefly, six to twelve week old infected tomato roots were cut into 1-2 segment. Root segments were shacked vigorously in 200 ml of a 0.5% Na O Cl solution for 4 min. Then, the Na O Cl solution was passed quickly through a 200-mesh (75-um), nested over a 500-mesh sieve to collect freed eggs. The a 500-mesh sieve with eggs was quickly placed under a stream of cold water to remove residual Na O Cl and rinsed several times. About 50 ml aqueous suspension of eggs was collected and number of eggs per unit volume will be counted. The egg suspension was allowed to sit at room temperature for 4 days. The hatching juveniles were collected and used in the subsequent experiments.
Determine the efficient concentration of nematicides (Oxamyl and Thidiocarb) that kill or suppress Root-Knot Larvae.
M. incognita eggs collected from tomato cultures by NaOC1 extraction (Hussey & Barker, Plant Disease Reporter. 57:1025-1028 (1973)). Egg suspension was incubated at room temperature until larvae were hatched (4-5 days). The juveniles (J2) were counted and evaluated for activity/mobility for the duration of the study. Four different concentrations of both nematicides (Oxamyl and Thiodicarb) were used to assess their efficacy in killing the nematodes. These were untreated control, 200 ug, 1 mg, 2 mg, and 10 mg. […]

The test system of data set [1] is nematodes in a dehydrated state. Conditions: dry soils; cited from earlier work.
Another data set deals with plant roots. Briefly: Abamectin applied to soil prior to planting: gall formation, root necrosis, root length. Format: in vivo. Here is the method: Abamectin at 5 μg or 1 μg was directly applied to soil prior to planting. Alternatively abamectin was loaded into liposomes at either 5 μg or 1 μg and applied to soil prior to planting. Gall formation was detected. […] Therefore, liposomal abamectin formulations enhance root length as compared to non-liposomal abamectin formulations.

For `CS/C(C)=N\OC(=O)N(C)SN(C)C(=O)O/N=C(\C)SC` [Larvin (Thiodicarb), Thiodicarb], the “concentration needed to kill Root-Knot (J2)” value with Root-Knot larvae (J2) was “required higher concentration to kill Root-Knot (J2)”.
On to `CBr` [methyl bromide], for which the “tolerated dose compared to active forms in moist soil” value in data set [1] is on record as 10 times the lethal dose.
In the case of abamectin [non-liposomal abamectin], the root necrosis entry in the data set on plant roots (1 μg applied to soil prior to planting, FIG. 4) is recorded as “most root necrosis followed by the non-liposomal abamectin 1 μg application”. Also, in the data set with plant roots (5 μg applied to soil prior to planting, FIG. 3), the gall formation result is recorded as “most gall formulation followed by the non-liposomal abamectin 5 μg application”.
